One data set has as its target T1, CYP2C8 (Homo sapiens, UniProt P10632).
T1 construct: Pooled human liver microsomes (HLM, LOT 32556) were purchased from BD Gentest Corporation; tissue BD Gentest Corporation LOT 32556; host or cells: pooled human liver microsomes
T1 sequence (P10632 1-490): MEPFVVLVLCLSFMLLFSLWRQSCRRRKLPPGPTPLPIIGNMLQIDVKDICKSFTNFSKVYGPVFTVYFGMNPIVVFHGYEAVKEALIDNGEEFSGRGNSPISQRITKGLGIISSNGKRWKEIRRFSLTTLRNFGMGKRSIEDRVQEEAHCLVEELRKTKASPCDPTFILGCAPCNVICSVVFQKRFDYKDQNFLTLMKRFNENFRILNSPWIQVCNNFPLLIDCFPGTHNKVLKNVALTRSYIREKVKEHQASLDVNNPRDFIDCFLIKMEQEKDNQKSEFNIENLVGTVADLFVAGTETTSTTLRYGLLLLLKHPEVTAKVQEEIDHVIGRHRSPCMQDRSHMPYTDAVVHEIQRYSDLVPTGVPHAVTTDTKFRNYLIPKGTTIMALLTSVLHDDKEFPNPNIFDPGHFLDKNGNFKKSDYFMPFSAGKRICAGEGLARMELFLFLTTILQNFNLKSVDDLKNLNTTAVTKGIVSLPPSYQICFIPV
Kind of data set: CYP inhibition in human liver microsomes, substrate cocktail, LC-MS/MS (paclitaxel). Type of data set: in vitro ADME. The settings on record: metabolite 6α-hydroxypaclitaxel, read-out: IC50 for HLM, CYP2C8. The source says: (§1) Positive controls (furafyline for CYP1A2, montelukast for CYP2C8, sulfaphenazole for CYP2C9, S-(+)-N-3-benzylnirvanol for CYP2C19, quinidine for CYP2D6, ketoconazole for CYP3A4) and specific substrates (phenacetin for CYP1A2, paclitaxel for CYP2C8, diclofenac for CYP2C9, S-mephenytoin for CYP2C19, dextromethorphan for CYP2D6, midazolam for CYP3A4) are consistent with our previous papers. The substrates were used at concentrations approximately equal to their respective Michaelis-Menten constant (Km) values: 10 μM phenacetin, 5 μM paclitaxel, 5 μM diclofenac, 200 μM S-mephenytoin, 5 μM dextromethorphan, and 2 μM midazolam. NADP^+ was added after a 15 min preincubation of all other components at 37 °C. After a given incubation time (30 min), the reactions were terminated by addition of 60 μL ice-cold acetonitrile containing gemfibrozil and buspirone as internal standards. Incubation samples were stored at −80 °C until used in liquid chromatography-tandem mass spectrometry (LC-MS/MS) analysis. The mixture was centrifuged at 3,500 rpm for 5 min. The supernatant was mixed with equal volume of a 1:1 mixture of methanol and water and 20 μL of the final mixture was used for LC-MS/ MS analysis. […]
(§2) The CYP inhibition potential were evaluated by measuring the formation of one or more metabolites of the test substrates. […]
In general terms: Liver microsomes are vesicles of endoplasmic reticulum, rich in cytochrome P450 enzymes.

In a further data set the target is T2, CYP2C11 (Rattus norvegicus, UniProt P08683).
T2 sequence (P08683 1-500): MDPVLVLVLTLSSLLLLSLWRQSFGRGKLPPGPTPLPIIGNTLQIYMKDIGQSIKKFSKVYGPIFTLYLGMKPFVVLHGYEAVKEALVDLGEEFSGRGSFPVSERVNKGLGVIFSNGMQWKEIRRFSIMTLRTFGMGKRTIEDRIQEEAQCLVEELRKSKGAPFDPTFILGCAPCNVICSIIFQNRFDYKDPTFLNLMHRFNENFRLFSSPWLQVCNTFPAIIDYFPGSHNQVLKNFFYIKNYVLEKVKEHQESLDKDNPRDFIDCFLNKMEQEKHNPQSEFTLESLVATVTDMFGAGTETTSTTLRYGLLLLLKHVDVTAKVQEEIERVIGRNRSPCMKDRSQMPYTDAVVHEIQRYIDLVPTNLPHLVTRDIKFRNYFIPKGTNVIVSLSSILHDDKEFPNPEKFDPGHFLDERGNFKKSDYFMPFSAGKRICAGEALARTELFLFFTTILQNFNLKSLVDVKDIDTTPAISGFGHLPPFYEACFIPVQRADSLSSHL
Briefly: CYP inhibition in rat liver microsomes, substrate cocktail, LC-MS/MS (diclofenac). It counts as in vitro ADME. The settings on record: pH 7.4, probe diclofenac 5 μM, read-out: IC50 for RLM, CYP2C11 (table row CYP2C9).
From the text: as §1, §2

This passage reports IC50 results from paper PMC6271944 (Molecules, 2014).

Broadly, the IC50 is the concentration that inhibits the measured activity by half. On to `O=C(O)[C@H]1O[C@@H](Oc2cc3oc(-c4ccc(O)cc4)cc(=O)c3c(O)c2O)[C@H](O)[C@@H](O)[C@@H]1O` [scutellarin, Scutellarin], for which the IC50 on CYP2C8 is above 100 µM. Besides, the IC50 at 30 min at CYP2C11 was above 100 µM.
